The values below come from patent publication US10940188B2, “Compounds and methods for treatment and prevention of Flavivirus infection” (priority 2016, dated 2021).

In assay [1] the test system is ZIKV-induced caspase 3/7 activity in human astrocytes. The experiment in a line: Caspase 3/7 activity assay, ZIKV-infected human astrocytes. It counts as cell-based. The settings on record: Astrocyte, ZIKV-infected human astrocytes; for IC50: read-out: Caspase 3 (IC50, uM) Astrocyte; for Emax: read-out: Caspase 3 (efficacy, %) Astrocyte. A digest of the protocol: (§1)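 Human NPCs, SNB-19 cells or astrocytes seeded 16 h, compound added 30 min before ZIKV, then 6 h infection at 37 °C. Caspase-Glo 3/7 luminescence after 30 min at room temperature, normalized to uninfected cells (0%) and ZIKV-infected cells (100%).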

The subject of assay [2] is ZIKV-induced cell death in hNPCs. In words: ATP cell viability assay for ZIKV-induced cell death, hNPCs. It counts as cell-based, human. The settings on record: ZIKV-infected hNPCs. How it is done: (§2) The reagent was reconstituted and prepared as described by the manufacturer. In order to measure the cell death caused by ZIKV infection, cells were cultured for 16 hours at 37° C. with 5% CO2 in assay plates, followed by the addition of ZIKV solution and incubation at 37° C. with 5% CO2 for 72 hours. ATPlite, the ATP monitoring reagent, was then added to the assay plates and they were incubated for 15 minutes. The resulting luminescence was measured using the ViewLux plate reader (Perkin Elmer). Data were normalized using the wells without cells as a control for 100% cell killing, and cell-containing wells without ZIKV infection were used as full cell viability (0% cell killing).
Human NPCs were seeded onto PDL coated 1536-well assay plates at 250 cells per 3 μl/well and incubated at 37° C. in 5% CO2 for 16 hours. Test compounds dissolved in DMSO were transferred to assay plates at a volume of 23 nl/well by an automated pintool workstation (Wako Automation, San Diego, Calif.). Compounds were incubated with cells for 30 minutes at 37° C. in 5% CO2, immediately followed by the addition of 2 μl/well of ZIKV. Incubation time of compound-treated cells with ZIKV varied based on assay format. Experiments measuring virus-induced caspase 3/7 activity required a 6 hour incubation of ZIKV in the presence compounds at 37° C. in 5% CO2. Following this incubation, 3.5 μl/well of caspase 3/7 reagent mixture was added to assay plates. The plates were incubated for 30 minutes at room temperature, and the resultant luminescence signal was measured using a ViewLux plate reader (Perkin Elmer). Experiments measuring virus-induced cell death required a 72-hour incubation of ZIKV in the presence of compounds at 37° C. in 5% CO2. Following this incubation, 3.5 μl/well of ATP content detection reagent was added to assay plates, incubated for 30 minutes at the room temperature, and the resultant luminescence signal was measured in a ViewLux plate reader.
as §2, with “The ATPlite luminescence assay system assay kit (PerkinElmer) was used to determine cell viability. The reagent” for “The reagent”, “by the manufacture. In order” for “by the manufacturer. In order”, “followed by addition of” for “followed by the addition of”, “plates and incubated for” for “plates and they were incubated for”, “Elmer). Data was normalized using” for “Elmer). Data were normalized using”
Human NPCs were seeded onto PDL coated 1536-well assay plates at 250 cells per 3 μl/well and incubated at 37° C. in 5% CO2 for 16 hours. Test compounds dissolved in DMSO were transferred to assay plates at a volume of 23 nl/well by an automated pintool workstation (Wako Automation, San Diego, Calif.). Compounds were incubated with cells for 30 minutes at 37° C. in 5% CO2, immediately followed by the addition of 2 μl/well of ZIKV. Incubation time of compound-treated cells with ZIKV varied based on assay format. Experiments measuring virus induced caspase 3/7 activity required a 6 hour incubation of ZIKV in the presence compounds at 37° C. in 5% CO2. Following this incubation, 3 μl/well of caspase 3/7 reagent mixture was added to assay plates, incubated for 30 minute at room temperature, and the resultant luminescence signal was measured using a ViewLux plate reader (Perkin Elmer). Experiments measuring the virus induced cell death required a 72 hour incubation of ZIKV in the presence of compounds at 37° C. in 5% CO2. Following this incubation, 3 μl/well of ATP content detection reagent was added to assay plates, incubated for 30 minute at room temperature, and the resultant luminescence signal was measured in a ViewLux plate reader.

In assay [3] the test system is ZIKV-induced caspase 3/7 activity in SNB-19 cells. The experiment in a line: Caspase 3/7 activity assay, ZIKV-infected SNB-19 cells. It counts as cell-based. The conditions noted are these: Homo sapiens, ZIKV-infected SNB-19 cells; for IC50: read-out: Caspase 3 (IC50, uM) SNB-19; for Emax: read-out: Caspase 3 (efficacy, %) SNB-19. In outline: as §1
Assay [4] deals with ZIKV-induced cell death in human astrocytes. The experiment in a line: ATP cell viability assay for ZIKV-induced cell death, human astrocytes. It counts as cell-based. The settings on record: ZIKV-infected human astrocytes.

By IC50 is commonly meant the concentration needed to halve the response being measured. Consider `Nc1nc2ccc([N+](=O)[O-])cc2s1` [2-Amino-6-nitrobenzothiazole], for which, in assay [1], the half-inhibitory concentration (IC50) amounted to 39.8 µM and the Emax was found to be 54.1%. For the same compound, the “Cell viability (efficacy, %) NPCs” value in assay [2] was found to be 0.0%. In assay [3], the half-inhibitory concentration (IC50) was 53.1 µM and the Emax was determined as 46.1%. In addition, in assay [4], the “Cell viability (efficacy, %) Astrocyte” value came to 0.0%.
In the case of `COc1ccc(-c2cc(=S)ss2)cc1` [Anethole trithione], in assay [1], the IC50 is 13.8 µM and the Emax worked out at 62.7%. Further, the “Cell viability (efficacy, %) NPCs” value in assay [2] came to 0.0%. In addition, in assay [3], the concentration for half-maximal inhibition (IC50) was determined as 15.5 µM and the Emax turned out to be 85.5%. For the same compound, in assay [4], the “Cell viability (efficacy, %) Astrocyte” value is 0.0%.
